According to publication PMC6838151 (Scientific Reports, 2019):
≈ marks a conversion by molar mass, not a printed value. Like-named read-outs stand apart in the source and are kept apart here.

Columns and labels:
[1] = tested on: hASCs (p53, p21, BAX, BCL-2 transcripts); assay: Apoptosis-related transcripts by qRT-PCR in hASCs; assay type: cell-based, human; settings: 20 µM, 24 h; for expression of p53 gene / expression of p21 transcript / relative expression level of BAX / relative expression level of BCL-2: hASCs; for expression of p53 gene: vs control cells; for expression of p21 transcript: vs control group, p < 0.001; for relative expression level of BAX / relative expression level of BCL-2: vs control, differences not significant
Procedure: Cellular apoptosis level was assessed using quantitative reverse transcriptase real-time polymerase chain reaction (qRT-PCR). First, the cells were seeded in a 24-well plate at a concentration of 3 × 10^4 cells/well in DMEM with Nutrient F-12 Ham complete medium and left in the CO2 incubator overnight to allow cells to attach. […] After 24 h of challenge with the compounds, the cells were homogenized with TRI Reagent and total RNA was isolated by phenol-chloroform extraction and ethanol precipitation. RNA purity and quantity were measured at a wavelength of 260 and 280 nm (Epoch, Biotek). Genomic DNA was removed with DNase I, RNase-free ([…]) (Thermo Scientific, Poland) and cDNA was synthesized using RevertAid First Strand cDNA Synthesis Kit (Thermo Scientific, Poland). 150 ng of total RNA served as a template for a single reaction using T100 Thermo Cycler (Bio-Rad, USA). The expression levels of p53 tumor suppressor, cyclin dependent kinase inhibitor 1A (p21), apoptosis regulators BAX and BCL-2 were determined. qRT-PCR was performed on a CFX Connect^TM Real-Time PCR Detection System (Bio-Rad) using SensiFast SYBR & Fluorescein Kit (Bioline, Cincinnati, OH, USA) and primer pairs as listed in Table S4 in ESI. 500 nM of specific primers and 1 µL of cDNA in a 10 µL final volume were applied in each reaction. The quantitative expression of the genes was calculated by the 2^−ΔΔCT method using GAPDH as housekeeping genes.
Statistical analysis was performed with GraphPad Prism 5 software (San Diego, USA). All data values are presented as mean ± SD, measured in triplicates or more. Statistical significance between groups was determined using two-way ANOVA grouped analysis.

C. albicans DSY1050 = assay: microbe, parasite or virus in culture; assay type: cell-based, Candida albicans; settings: for MIC50: Candida albicans, DSY1050, 48 h; for times more susceptible than parental strain (CAF2-1): DSY1050 vs CAF2-1
Description: (§1) The C. albicans CAF2-1 (Genotype/Description: ura3Δ::imm434/URA3[89]) and DSY1050 (Genotype/Description: cdr1Δ::hisG/cdr1Δ::hisG/cdr2Δ::hisG/cdr2Δ::hisG/mdr1Δ::hisG-URA3-hisG/mdr1Δ::hisG[90]) strains used in this study were generous gift from D. Sanglard (Lausanne, Switzerland)[91],[92] whereas C. albicans B3 and Gu4 (Genotype/Description: clinical isolates fluconazole sensitive)[93]), B4 (Genotype/Description: Clinical isolate fluconazole resistant due to the overexpression of MDR1[93]) and Gu5 (Genotype/Description: Clinical isolate fluconazole resistant due to the overexpression of CDR1 and CDR2[93]) were a generous gift from prof. S. Milewski (Gdańsk, Poland)[94] and prof. J. Morschhäuser (Wurzburg, Germany)[93]. All strains were grown at 37 °C on Sabouraud medium (Biomerieux).
(§2) The antifungal activity was determined on the 96-well polystyrene microtiter plates (Sarstedt) according to Clinical and Laboratory Standards Institute M27-A3[95]. […] The compounds were dissolved in DMSO (10 mM) and then serially diluted in RPMI-1640 (ThermoFisher) medium to obtain the final concentration range. Inocula of all strains were prepared as suspensions with turbidity of 0.5 McFarland standard in sterile 0.85% saline and diluted in RPMI-1640. After inoculation, each well contained appr. 5 × 10^2 CFU/mL. The plates were cultivated for 48 h at 37 °C. Optical density was measured at A490nm using a microplate reader ASYS UVM 340 (Biogenet).

C. albicans CAF2-1 = assay: microbe, parasite or virus in culture; assay type: cell-based, Candida albicans; settings: for times more active than Flc: C. albicans CAF2-1, MIC50 ratio; for MIC50: Candida albicans, CAF21, 48 h
Description: as §1, §2

C. albicans B4 = assay: microbe, parasite or virus in culture; assay type: cell-based, Candida albicans; settings: for times higher resistance of B4 than B3: B4 vs B3; for MIC50: Candida albicans, B4, 48 h
Description: as §1, §2

C. albicans Gu5 = assay: microbe, parasite or virus in culture; assay type: cell-based, Candida albicans; settings: for times more resistant than Gu4 strain: Gu5 vs Gu4
Description: as §1, §2

[2] = Cytotoxicity IC50, TOX-8 resazurin assay, hASCs, 24 h; assay type: cell-based, human; settings: female, human
Procedure: Human Adipose Tissue-derived Stem Cells (hASCs) were isolated from subcutaneous adipose tissue fragments harvested from non-diabetic female donors (age range 33–38, n = 2) during standard surgical procedure of total hip arthroplasty. Immediately after collection of tissue, the samples were placed in sterile tissue-transport medium (Hank’s Balanced Salt Solution (HBSS) supplemented with 1% Penicillin/Streptomycin/Amphotericin B solution (P/S/A). Mesenchymal stromal cell isolation was performed using enzymatic digestion of extracellular matrix with collagenase type I. Before digestion, tissue specimens were washed twice with HBSS and incubated in collagenase type I solution (1 mg/mL) at 37 °C for 40 min. The digest was subsequently centrifuged (1200 × g; 10 minutes; room temperature) and the cell pellet was resuspended in Dulbecco’s modified Eagle’s medium (DMEM) with Nutrient F-12 Ham, 10% of Fetal Bovine Serum (FBS), and 1% of P/S/A, transferred to a culture flask, and kept in culture under optimal conditions (37 °C in a humidified atmosphere of 5% CO2). The medium was refreshed every 2–3 days. At 80–90% confluence, the cells were passaged using trypsin solution (TrypLE Express, Life Technologies, California, USA). At passage 3, hASCs were collected and cellular phenotype was confirmed by the high expression of markers CD44, CD29, CD73, CD105 and low expression of CD45. Moreover, the trilineage differentiation capacity of ASCs was confirmed as previously described.
The IC50 values were determined using in vitro Toxicology TOX-8 Assay Kit (resazurin based) according to the manufacturer’s protocol. For this assay, cells were seeded in a 96-well plate at a density of 5 × 10^3 cells/well. The cells were pre-incubated in drug-free complete medium for 24 h before adding various concentrations of the compounds to be investigated. Stock solutions of the compounds were prepared in DMSO following serial dilutions in DMEM with Nutrient F-12 Ham complete medium. The cells exposure period was 24 h. After that time media were replaced with 10% v/v resazurin dye solution in fresh complete culture medium. Incubation was carried out for 2 h at 37 °C in the CO2 incubator. Reduction of the dye was measured spectrophotometrically at 600 nm and 690 nm reference wavelength (Epoch, Biotek). Absorbance measurements allowed the determination of viable treated cells relative to untreated controls using the inflection point of a dose-response graph. IC50 values were estimated as duplicates of triplicate readings in two independent experiments.

[3] = hASCs, TOX-8 assay, 24 h, read-out: IC50 (cytotoxicity, hASCs viability)
[4] = C. albicans Gu5, RPMI-1640, 37 °C, 48 h

Structure (SMILES) | induction of apoptosis in hASC cultures [1] | expression of p53 gene [1] | expression of p21 transcript [1] | relative expression level of BAX [1] | relative expression level of BCL-2 [1] | MIC50 (C. albicans DSY1050) [µM] | times more susceptible than parental strain (CAF2-1) (C. albicans DSY1050) | times more active than Flc (C. albicans CAF2-1) | MIC50 (C. albicans CAF2-1) [µM] | times higher resistance of B4 than B3 (C. albicans B4) | MIC50 (C. albicans B4) [µM] | MIC50 (C. albicans Gu5; Candida albicans, GU5, 48 h) [µM] | times more resistant than Gu4 strain (C. albicans Gu5) | IC50 at 24 h ([2]; IC50 (cytotoxicity, hASCs viability)) [µM] | IC50 at 24 h [2, 3] [µM] | MIC50 (C. albicans Gu5; [4])
O=P(CN1CCN(c2ccc(OC[C@H]3CO[C@](Cn4ccnc4)(c4ccc(Cl)cc4Cl)O3)cc2)CC1)(c1ccccc1)c1ccccc1 (racemic) [KeOP, Ph2P(O)CH2-Ke] | did not induce apoptosis | no significant changes | elevated expression | higher | higher | 0.2 (≈ 0.141 µg/mL) | four | eight | 0.78 (≈ 0.549 µg/mL) | two | 3.13 (≈ 2.2 µg/mL) | 25 (≈ 17.6 µg/mL) | two |  |  | 
Clc1ccc([C@@]2(Cn3ccnc3)OC[C@H](COc3ccc(N4CCN(CP(c5ccccc5)c5ccccc5)CC4)cc3)O2)c(Cl)c1 (racemic) [KeP, Ph2PCH2-Ke] | did not induce apoptosis | no significant changes | elevated expression | higher | higher | 0.78 (≈ 0.536 µg/mL) | four | two | 3.13 (≈ 2.15 µg/mL) | eight | 3.13 (≈ 2.15 µg/mL) | 50 (≈ 34.4 µg/mL) | sixteen | 37.6 |  | 
CC(=O)N1CCN(c2ccc(OCC3COC(Cn4ccnc4)(c4ccc(Cl)cc4Cl)O3)cc2)CC1 (stereo not shown) [Ke, ketoconazole, reference compound] | did not induce apoptosis | no significant changes | elevated expression |  |  | 0.02 (≈ 0.0106 µg/mL) |  |  | 0.05 (≈ 0.0266 µg/mL) |  | 0.39 (≈ 0.207 µg/mL) | 50 (≈ 26.6 µg/mL) |  |  | 121 | 
S=P(CN1CCN(c2ccc(OC[C@H]3CO[C@](Cn4ccnc4)(c4ccc(Cl)cc4Cl)O3)cc2)CC1)(c1ccccc1)c1ccccc1 [KeSP, Ph2P(S)CH2-Ke] |  |  |  |  |  | 0.39 (≈ 0.281 µg/mL) | eight | two | 3.13 (≈ 2.25 µg/mL) | two | 3.13 (≈ 2.25 µg/mL) | > 200 |  |  |  | no inhibitory effect
Clc1ccc([C@@]2(Cn3ccnc3)OC[C@H](COc3ccc(N4CCN(CP(=[Se])(c5ccccc5)c5ccccc5)CC4)cc3)O2)c(Cl)c1 [KeSeP, Ph2P(Se)CH2-Ke] |  |  |  |  |  | 0.78 (≈ 0.598 µg/mL) | four | two | 3.13 (≈ 2.4 µg/mL) | two | 6.25 (≈ 4.79 µg/mL) | > 200 |  |  | 110 | no inhibitory effect
